Assay results published in patent publication EP4559473A1, “PEPTIDE FOR THE TREATMENT OF DISEASES ASSOCIATED WITH APOLIPOPROTEIN AI OR TRANSTHYRETIN INVOLVEMENT” (Centro de Ingeniería Genética y Biotecnología, priority 2022, dated 2025).
Ends that are not written are not given here.

Legend:
[1] = Treatment of patients with ischemic heart disease and high blood pressure; type: in vivo; conditions: six patients, 1 mg every 12 hours intravenously for seven days; clinical and imaging evaluation
Description: It is exemplified with the results of six patients. They presented ischemic heart disease, associated with high blood pressure, which produced a state of severity. They were treated in the Intermediate Care Unit (IMCU) of the "Luis Díaz Soto" hospital in Havana. These patients were treated with a pharmaceutical composition comprising the peptide identified as SEQ ID NO: 1, so that a peptide dose of 1 mg every 12 hours was administered intravenously for seven days. In addition, they received the standard therapy needed for these cases.
The treatment with this peptide was very safe, and verified by monitoring blood biochemistry parameters and differential blood count.

[2] = Treatment of patients with type II diabetes (diabetic decompensation); type: in vivo; conditions: five patients, 1 mg every 12 hours intravenously for eight days; clinical and imaging evaluation
Description: It is exemplified with ten patients who had diabetic decompensation and reached a state of severity, that let them to be treated in the ICU of the hospital "Luis Díaz Soto" in Havana. Five of these patients were treated with a pharmaceutical composition comprising the peptide identified as SEQ ID NO: 1, so that a peptide dose of 1 mg every 12 hours was administered intravenously for eight days. In addition, they received the standard therapy needed for these cases.
Treatment with this peptide was very safe and was verified by monitoring blood biochemistry parameters and differential blood count.

SIDLKDKYKNIGAKLVQLVANNTNEEA [peptide identified as SEQ ID NO: 1]
side effects [1]: No side effects were observed
side effects [2]: No side effects were observed
